The assay relates to biosynthesis of cholesterol (rat liver homogenate). Briefly: CSI screen (inhibition of sterol synthesis; incorporation of 14C-acetate into non-saponifiable lipid by rat liver homogenate). The format is biochemical. The conditions noted are these: 50% inhibition of sterol synthesis over a one-hour period. The procedure: The ability of compounds of the present invention to inhibit the biosynthesis of cholesterol was measured by a method (designated CSI screen) which utilizes the procedure described by R. E. Dugan, et al, Archiv. Biochem. Biophys., (1972), 152, 21-27. In this method, the level of HMG-CoA enzyme activity in standard laboratory rats is increased by feeding the rats a chow diet containing 5% cholestryramine for four days, after which the rats are sacrificed.
The rat livers are homogenized, and the incorporation of […] into non-saponifiable lipid by the rat liver homogenate is measured. The micromolar concentration of compound required for 50% inhibition of sterol synthesis over a one-hour period is measured, and expressed as an IC50 value.

pIC50: −log10 of the molar value.

The pIC50 is the negative decadic logarithm of the IC50, by convention in mol/L. A low value points to a high IC50.

For the compound `C=C1CC2(C)CC1C(c1ccccc1)=C2C=CC1CC(O)CC(=O)O1` (centres unmarked), the pIC50 was 6.36. Take `C=C1CC2(C)CC1C(c1ccccc1)=C2/C=C/[C@@H](O)C[C@@H](O)CC(=O)OCC` (relative stereo): the pIC50 is 6.36.

The values above are taken from patent publication US4906657A, “Bicyclo heptane and bicyclo octane substituted inhibitors of cholesterol synthesis” (Warner-Lambert Company, priority 1988, dated 1990).
